Laboratory results published in article PMC7170861, “The TIPE Molecular Pilot That Directs Lymphocyte Migration in Health and Inflammation” (Scientific Reports, 2020).

What was measured:
Assay in all cases: SPR, lipid vesicles on L1 chip, steady-state fit
Settings in all cases: 10% (mole/mole) lipid in DOPC vesicles; HBS pH 7.4; 25 °C
TNFAIP8 = target: T1, TNFAIP8 (Mus musculus, UniProt Q921Z5); type: binding
T1 construct: isoform 1; pET-SUMO, N-terminal 6His-SUMO tag cleaved off by SUMO protease; E. coli BL21(DE3); untagged native protein
T1 sequence (Q921Z5 1-198): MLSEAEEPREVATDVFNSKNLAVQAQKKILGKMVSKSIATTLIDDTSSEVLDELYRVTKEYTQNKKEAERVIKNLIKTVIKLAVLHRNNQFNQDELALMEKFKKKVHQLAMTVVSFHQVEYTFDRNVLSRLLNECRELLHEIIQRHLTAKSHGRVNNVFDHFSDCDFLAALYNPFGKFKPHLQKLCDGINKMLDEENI

GRP1-PH = target: T2, GRP1-PH
T2 construct: gene CYTH3; N-terminal 6His-SUMO tag cleaved off; E. coli BL21(DE3)
Source text: SPR, lipid vesicles on L1 chip, steady-state fit on GRP1-PH | Purified PLCδ-PH and GRP1-PH domains were used as positive controls

PLCδ-PH = target: T3, PLCδ-PH
T3 construct: gene PLCD1; N-terminal 6His-SUMO tag cleaved off; E. coli BL21(DE3)
Source text: SPR, lipid vesicles on L1 chip, steady-state fit on PLCδ-PH | Purified PLCδ-PH and GRP1-PH domains were used as positive controls

| Kd (TNFAIP8) [nM] | Kd (GRP1-PH) [nM] | Kd (PLCδ-PH) [nM] | Substance |
| --- | --- | --- | --- |
| 4060 | 980 ± 690 | – | PtdIns(3,4,5)P3 |
| 3160 | – | 2100 ± 1550 | PtdIns(4,5)P2 |
